From PMC10682394, “A papain-like cysteine protease-released small signal peptide confers wheat resistance to wheat yellow mosaic virus” (Nature Communications, 2023) come the findings set out here.

The assay concerns the target T1, TaRD21A (TaRD21A^S; TaRD21A^R in A96S rows) (Triticum aestivum, UniProt A0A3B6DKH2).
T1 construct: gene LOC123054921; GST fusion from E. coli BL21 (purified), or RFP fusion expressed in N. benthamiana leaves (apoplastic fluid); active bands 25-40 kDa
In words: fluorescent substrate assay, purified TaRD21A^S-GST. Format: biochemical. The following applies: 10 uM substrate.

Peptide text beside a SMILES is read from it. * marks the point of attachment. AMC = Cc1cc(=O)oc2cc(N*)ccc12; Cbz = O=C(OCc1ccccc1)*

T1 sequence (A0A3B6DKH2 24-463, stated change not applied): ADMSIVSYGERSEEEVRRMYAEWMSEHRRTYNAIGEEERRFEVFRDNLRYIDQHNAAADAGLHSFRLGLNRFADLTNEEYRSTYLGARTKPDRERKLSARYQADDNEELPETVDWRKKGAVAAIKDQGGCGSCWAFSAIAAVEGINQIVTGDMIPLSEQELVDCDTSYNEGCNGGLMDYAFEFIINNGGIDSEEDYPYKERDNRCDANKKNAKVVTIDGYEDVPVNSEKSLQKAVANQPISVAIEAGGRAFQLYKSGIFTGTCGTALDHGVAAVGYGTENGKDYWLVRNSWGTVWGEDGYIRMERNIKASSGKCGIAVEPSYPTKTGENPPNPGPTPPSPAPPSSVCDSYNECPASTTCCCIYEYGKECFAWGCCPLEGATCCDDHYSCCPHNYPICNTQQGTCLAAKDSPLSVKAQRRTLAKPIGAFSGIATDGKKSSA

With `Cc1cc(=O)oc2cc(NC(=O)[C@H](CCCNC(=N)N)NC(=O)[C@H](CCCNC(=N)N)NC(=O)OCc3ccccc3)ccc12` [Z-Arg-Arg-AMC] (Cbz-Arg-Arg-{AMC}), where the note is “RR motif”, the “fluorescent substrate assay, purified TaRD21A^S-GST” value was “examined using fluorescent substrates containing RR/FR motifs”.

In the case of `Cc1cc(=O)oc2cc(NC(=O)[C@H](CCCNC(=N)N)NC(=O)[C@H](Cc3ccccc3)NC(=O)OCc3ccccc3)ccc12` [Z-Phe-Arg-7-amido-4-methylcoumarin] (Cbz-Phe-Arg-{AMC}), for the setting “FR motif”, the “fluorescent substrate assay, purified TaRD21A^S-GST” value is on record as “examined using fluorescent substrates containing RR/FR motifs”.
